Measured values from BindingDB's records for doi:10.1016/j.bmcl.2003.10.007 (Inotek Pharmaceuticals, 2003).
Counter-ions that a name gives are not always drawn.

Assay: Tested for inhibition of poly(ADP-ribose) polymerase-1 (PARP-1) in mouse using Cell protection assay

IC50 [µM]	SMILES
18	O=C(CN1CCNCC1)Nc1cccc2c1CNC2=O [N-(1-Oxo-2,3-dihydro-1H-isoindol-4-yl)-2-piperazin-1-yl-acetamide; hydrochloride]
5	Nc1ncnc2c1ncn2C1OC(CNC(=O)CCC(=O)Nc2cccc(-c3ccccc3)c2)[C@@H](O)[C@H]1O (stereo partly drawn) [N-[(3S,4R)-5-(6-Amino-purin-9-yl)-3,4-dihydroxy-tetrahydro-furan-2-ylmethyl]-N'-biphenyl-3-yl-succinamide]
68	O=C(CCCCCCC(=O)Nc1cccc2c1CNC2=O)NC[C@H]1OC(n2cnc3c(=O)[nH]cnc32)[C@H](O)[C@@H]1O (stereo not given in full)
30	O=C1N=Cc2ccccc21 [Isoindol-1-one]
3	O=C(Cn1cnc2ccccc21)Nc1cccc2c1CNC2=O [2-Benzoimidazol-1-yl-N-(1-oxo-2,3-dihydro-1H-isoindol-4-yl)-acetamide]
1.9	Nc1ncnc2c1ncn2C1O[C@H](CNC(=O)CC(=O)Nc2cccc3c2CNC3=O)[C@@H](O)[C@H]1O (stereo not given in full)
0.045	Nc1ncnc2c1ncn2[C@@H]1O[C@H](C(=O)N2CCN(CC(=O)Nc3cccc4c3CNC4=O)CC2)[C@@H](O)[C@H]1O [2-(4-((2S,3S,4R,5R)-5-(6-amino-9H-purin-9-yl)-3,4-dihydroxytetrahydrofuran-2-carbonyl)piperazin-1-yl)-N-(1-oxoisoindolin-4-yl)acetamide]
10	Nc1ncnc2c1ncn2C1O[C@H](CNC(=O)/C=C/c2ccc(C(=O)Nc3cccc4c3CNC4=O)cc2)[C@@H](O)[C@H]1O (stereo not given in full)
3	CNc1ncnc2c1ncn2CC(=O)Nc1cccc2c1CNC2=O [2-(6-Methylamino-purin-9-yl)-N-(1-oxo-2,3-dihydro-1H-isoindol-4-yl)-acetamide]
> 30	O=C(CN1CCOCC1)Nc1cccc2c1CNC2=O [2-Morpholin-4-yl-N-(1-oxo-2,3-dihydro-1H-isoindol-4-yl)-acetamide]
> 30	CN1CCN(CCC(=O)Nc2cccc3c2CNC3=O)CC1 [3-(4-Methyl-piperazin-1-yl)-N-(1-oxo-2,3-dihydro-1H-isoindol-4-yl)-propionamide]
> 30	CNCC(=O)Nc1cccc2c1CNC2=O [2-Methylamino-N-(1-oxo-2,3-dihydro-1H-isoindol-4-yl)-acetamide]
> 30	CN1CCN(CC(=O)Nc2cccc3c2CNC3=O)CC1 [2-(4-Methyl-piperazin-1-yl)-N-(1-oxo-2,3-dihydro-1H-isoindol-4-yl)-acetamide]
30	Nc1cccc2c1CNC2=O [4-Amino-2,3-dihydro-isoindol-1-one]
0.1	Nc1ncnc2c1ncn2C1O[C@H](CNC(=O)CCC(=O)Nc2cccc3c2CNC3=O)[C@@H](O)[C@H]1O (stereo not given in full)
3	Nc1ncnc2c1ncn2C1O[C@H](CNC(=O)CCCCCC(=O)Nc2cccc3c2CNC3=O)[C@@H](O)[C@H]1O (stereo not given in full)
0.7	Nc1ncnc2c1ncn2C1O[C@H](CNC(=O)CCCCCCC(=O)Nc2cccc3c2CNC3=O)[C@@H](O)[C@H]1O (stereo not given in full)
18	CCNCC(=O)Nc1cccc2c1CNC2=O [2-Ethylamino-N-(1-oxo-2,3-dihydro-1H-isoindol-4-yl)-acetamide]
2	Nc1ncnc2c1ncn2C1O[C@H](CNC(=O)CCCCCCCC(=O)Nc2cccc3c2CNC3=O)[C@@H](O)[C@H]1O (stereo not given in full)
> 300	Nc1ncnc2c1ncn2C1O[C@H](C(=O)N2CCNCC2)[C@@H](O)[C@H]1O (stereo not given in full)
